Laboratory results reported in article PMC11635519, “A High-Throughput Method for Screening Peptide Activators of G-Protein-Coupled Receptors” (ACS Omega, 2024).
“Also recorded” adds a separate entry of the source. Where a SMILES comes first, the peptide text is derived from it.

What was measured:
[1] = Circular dichroism secondary structure determination; conditions: acetonitrile:PBS (1:2), 20 μM peptide, 0.1 cm cuvette, 10 accumulations; for Others (secondary structure content) / α-helix content / β-sheet content: Table S2, estimated by BeStSel from CD; for α-helical structure content: circular dichroism
Procedure: We next performed circular dichroism (CD) analysis of the peptides in solution to determine the peptides’ secondary structure.
Peptide secondary structure determination was carried out using a Jasco J-720 spectropolarimeter (Table S2). Lyophilized peptide powders were dissolved in acetonitrile:PBS (1:2), and CD spectra were read immediately. […] Samples were read using a 0.1 cm cuvette path length with 10 accumulations per run and 50 nm/min scanning speed. All spectra were background subtracted.

[2] = biological target: T1, hGLP1R (Homo sapiens, UniProt P43220); assay: HTRF cAMP assay in GLP-1R-expressing HEK293 cells; assay type: cell-based; conditions: at higher concentrations, HEK293 stably expressing GLP-1R, 4 h at 37 °C
T1 construct: expressed in transfected cells
T1 sequence (P43220 24-463): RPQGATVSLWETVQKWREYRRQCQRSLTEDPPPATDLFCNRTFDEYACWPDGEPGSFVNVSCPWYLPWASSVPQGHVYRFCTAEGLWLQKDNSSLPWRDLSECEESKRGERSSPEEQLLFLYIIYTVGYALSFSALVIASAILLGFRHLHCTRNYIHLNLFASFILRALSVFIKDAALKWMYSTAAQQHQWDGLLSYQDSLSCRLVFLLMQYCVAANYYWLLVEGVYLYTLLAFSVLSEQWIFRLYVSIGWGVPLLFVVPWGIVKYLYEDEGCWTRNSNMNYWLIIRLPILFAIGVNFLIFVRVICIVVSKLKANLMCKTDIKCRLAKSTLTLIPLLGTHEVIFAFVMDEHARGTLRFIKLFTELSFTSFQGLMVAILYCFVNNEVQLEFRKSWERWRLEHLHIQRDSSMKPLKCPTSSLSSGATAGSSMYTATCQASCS
Procedure: cAMP accumulation was measured using a HTRF cAMP-Gs Dynamic kit (Cisbio Bioassays, 62AM4PEB) according to the manufacturer’s instructions. Briefly, HEK293 cells expressing hGLP1R were trypsinized from subconfluent culture and seeded in a 96-well low-volume plate at a density of 2000 cells per well. […] After 4 h of incubation at 37 °C, cAMP d2 reagent and cAMP Eu-Cryptate antibodies were added to each well. After incubation at room temperature for 30 min in the dark, the plate was read using a Synergy 2 plate reader (BioTek) with excitation at 330 nm and emission at 620 and 665 nm. Data were used to calculate the EC50 value by fitting it to a nonlinear sigmoidal curve using GraphPad Prism 8.

[3] = biological target: glucagon-like peptide-1 receptor (human) (UniProt P43220)
Chain of glucagon-like peptide-1 receptor (human) (P43220 24-463): as above

[4] = tested on: GLP-1R; assay: FACS analysis of GFP-positive cells (CRE-GFP reporter), GLP-1R-expressing HEK293; assay type: cell-based; conditions: HEK293 cells transfected with GLP-1R
Procedure: Cells were harvested by trypsin treatment and centrifuged at 500g for 5 min. The pellet was resuspended in ice-cold PBS and centrifuged again. The pellet was then resuspended at a concentration of 4 × 10^6 cells/mL in the PBS sorting buffer containing 100 Kunitz DNase I/mL, 10 μg/mL propidium iodide (Sigma), and 2% FBS. The sorting solution was also supplemented with either 10 μM forskolin, 100 μM 5,6-dichlorobenzimidazole riboside (DRB, Sigma), 10 μM forskolin (Sigma), and 100 μM DRB or DMSO, as a control. The cells were then sent through a 40 μm filter to remove large clumps and loaded into either a FACScan Flow Cytometer (BD Bioscience) for cell analysis or a FACSVantage SE cell sorter (BD Bioscience) for cell sorting. The cells with positive propidium iodide staining, i.e., the dead cells, were first eliminated from the analysis or sorting pool. For cell sorting, the desired population, either the EGFP brightest or least bright ones according to the purpose of experiments (see Results), was sorted into either 15 mL conical tubes or 96-well plates, which contained complete DMEM culture media.

[5] = tested on: CCR2; assay: CRE-luciferase reporter assay of MCP1 fusion constructs (platform validation); assay type: cell-based; conditions: HEK293T stably expressing CCR2 and Gaussia luciferase reporter, luciferase induced by 10 μM forskolin
Description: Figure 2 Validation of the screening platform using the MCP1 peptide. (A) Genetic construction that encodes the fusion protein used to display library peptides on the cell surface. (B) Cell surface localization of the MCP1-GFP peptide and CCR2-mCherry receptor. MCP1-GFP peptide and CCR2-mCherry were localized at the cell surface when expressed separately. (C) MCP1-GFP peptide colocalized with CCR2-mCherry at the cell surface and distinct subcellular sites upon transient coexpression in HEK293T cells. (D) Evaluating the activity of different fusion proteins of the MCP1 peptide using a CRE-luciferase reporter assay. […] The activation of the different peptide variants was recorded through the inhibition of the luciferase expression induced by 10 μM forskolin.
MCP1-GFP and CCR2-mCherry were localized at the cell surface when expressed separately (Figure 2B). […] We then evaluated the activity of the different MCP1-GFP constructions using a CRE-luciferase reporter assay. As a negative control, we used a construction where the MCP1 peptide is not fused to the signal or GPI-AP sequences.
HEK293T cells stably expressing CCR2 and the reporter Gaussia Luciferase construct were trypsinized from subconfluent culture and seeded in a 96-well plate at a density of 5000 cells per well. […] Immediately after adding the reagent, samples were read using a luminometer with a 480 nm filter.

[6] = tested on: CCR2-mCherry; assay: FRET colocalization of MCP1-GFP with CCR2-mCherry at the cell surface; assay type: cell-based; conditions: MCP1-GFP and CCR2-mCherry; transient coexpression in HEK293 cells; FRET assays
Procedure: To validate our screening platform, we chose the interaction between the chemokine MCP1 peptide and C–C chemokine receptor 2 (CCR2).[10],[11] We designed a structure that encodes a fusion protein to display the MCP1 peptide on the cell surface. The Ly6/neurotoxin (LYNX1) signal and GPI-AP sequences were present in this fusion protein’s N- and C-terminal regions, respectively. A Flag tag or GFP sequence was added upstream of the GPI-AP sequence. We also investigated the effect of various linkers between MCP1 and FLAG, as well as the FLAG and GPI-AP sequences (Figure 2A). All of the different MCP1-GFP constructions and CCR2 receptor fused with the mCherry fluorescent protein (CCR2-mCherry) were cloned into the pLJM1 nGFP lentiviral vector to evaluate their expression in human embryonic kidney 293 (HEK293) cells.
Figure 2 Validation of the screening platform using the MCP1 peptide. (A) Genetic construction that encodes the fusion protein used to display library peptides on the cell surface. (B) Cell surface localization of the MCP1-GFP peptide and CCR2-mCherry receptor. MCP1-GFP peptide and CCR2-mCherry were localized at the cell surface when expressed separately. […]
MCP1-GFP and CCR2-mCherry were localized at the cell surface when expressed separately (Figure 2B). […] We then evaluated the activity of the different MCP1-GFP constructions using a CRE-luciferase reporter assay. […]

[7] = tested on: GLP-1R; assay: cAMP assay (TR-FRET) for validating GLP-1R activating peptides from screening; assay type: cell-based; conditions: cells stably expressing GLP-1R and CRE, transfected with peptide-expressing construct, 24 h + 24 h; TR-FRET cAMP-Gs Dynamic kit
Description: We next screened the GPI-AP-peptide library using FACS to discover novel GLP-1R activators. FACS is a widely used flow cytometric technique that isolates specific cell populations from mixtures of different cells. Briefly, when a potential peptide activator stimulates GLP-1R, there is an intracellular boost of cAMP levels. Subsequently, cAMP activates CREB, which binds to CRE and triggers transcription of the GFP/luciferase reporter gene. […] We chose the top three activating peptides found throughout the screening for further validation testing (PepA3, Pep1, and Pep2).
Figure 3 Discovery of novel agonists of the GLP-1R using our screening platform. (A) Fluorescence-activated cell analysis and sorting of HEK293 cells transfected with the GLP-1R. […] (B) Confocal microscopy of HEK293 cells transfected with the GLP-1R treated with different peptides. […] The increase in the cyclic AMP concentration was quantified to evaluate the peptides’ activities.
The stable cell lines were prepared by the infection of HEK293T cells with the pLJM1 vector with GLP-1R and CRE. The cells were selected with the hygromycin antibiotic. […] The culture medium was changed, and cells were grown for 24 h. The cAMP cell content was estimated using a homogeneous time-resolved fluorescence resonance energy transfer (TR-FRET) immunoassay using a cAMP-Gs Dynamic kit (PerkinElmer) following manufacturer’s protocol.

Others (secondary structure content) [1] [%] | α-helix content [1] [%] | β-sheet content [1] [%] | α-helical structure content [1] | Compound | efficacy for GLP-1R activation relative to GLP-1 [2] | stimulation of GLP-1R-expressing cells and intracellular cAMP increase [7] | other results
56.5 | 30.1 | 13.3 | 30.1–46.1% | CC[C@H](C)[C@H](N)C(=O)N[C@@H](CS)C(=O)N[C@@H](CCC(=O)O)C(=O)NCC(=O)N[C@@H](CC(C)C)C(=O)N[C@@H](CCCNC(=N)N)C(=O)N[C@@H](CCC(=O)O)C(=O)N[C@H](C(=O)N[C@@H](CS)C(=O)N[C@@H](CCC(N)=O)C(=O)N1CCC[C@H]1C(=O)N[C@@H](C)C(=O)N[C@@H](Cc1ccccc1)C(=O)N[C@@H](CC(=O)O)C(=O)N[C@@H](C)C(=O)N[C@H](C(=O)N[C@@H](CC(=O)O)C(=O)N[C@@H](CCSC)C(=O)N[C@@H](C)C(=O)N[C@@H](Cc1c[nH]c2ccccc12)C(=O)N1CCC[C@H]1C(=O)N[C@@H](Cc1ccc(O)cc1)C(=O)N[C@@H](Cc1ccccc1)C(=O)N[C@@H](CC(C)C)C(=O)N[C@@H](CC(=O)O)C(=O)N[C@@H](CS)C(=O)N[C@@H](Cc1c[nH]cn1)C(=O)N[C@@H](CCCNC(=N)N)C(=O)N[C@@H](Cc1ccc(O)cc1)C(=O)N[C@@H](Cc1ccccc1)C(=O)N[C@H](C(=O)N[C@@H](CCCNC(=N)N)C(=O)N[C@@H](CCC(=O)O)C(=O)O)[C@@H](C)O)[C@@H](C)CC)C(C)C [PepA2] (H-ICEGLREVCQPAFDAIDMAWPYFLDCHRYFTRE-OH; N-terminus and C-terminus assumed) | able to stimulate GLP-1R activation to a level comparable to that of GLP-1 |  | 
45.4 | 46.1 | 8.5 | 30.1–46.1% | CC[C@H](C)[C@H](NC(=O)[C@H](C)NC(=O)[C@H](CC(=O)O)NC(=O)[C@H](Cc1ccccc1)NC(=O)[C@H](C)NC(=O)[C@@H]1CCCN1C(=O)[C@H](CCC(N)=O)NC(=O)[C@H](CS)NC(=O)[C@@H](NC(=O)[C@H](CCC(=O)O)NC(=O)[C@H](CCCNC(=N)N)NC(=O)[C@H](CC(C)C)NC(=O)CNC(=O)[C@H](CCC(=O)O)NC(=O)[C@H](CS)NC(=O)[C@@H](NC(=O)[C@@H](N)Cc1c[nH]cn1)[C@@H](C)CC)C(C)C)C(=O)N[C@@H](CC(=O)O)C(=O)N[C@@H](CCSC)C(=O)N[C@@H](C)C(=O)N[C@@H](Cc1c[nH]c2ccccc12)C(=O)N1CCC[C@H]1C(=O)N[C@@H](Cc1ccc(O)cc1)C(=O)N[C@@H](Cc1ccccc1)C(=O)N[C@@H](CC(C)C)C(=O)N[C@@H](CC(=O)O)C(=O)N[C@@H](CS)C(=O)N[C@@H](Cc1c[nH]cn1)C(=O)N[C@@H](CCCNC(=N)N)C(=O)N[C@@H](Cc1ccc(O)cc1)C(=O)N[C@@H](Cc1ccccc1)C(=O)N[C@H](C(=O)N[C@@H](CCCNC(=N)N)C(=O)N[C@@H](CCC(=O)O)C(=O)O)[C@@H](C)O [PepA] (H-HICEGLREVCQPAFDAIDMAWPYFLDCHRYFTRE-OH; N-terminus and C-terminus assumed) | able to stimulate GLP-1R activation to a level comparable to that of GLP-1 |  | 
 |  |  |  | glucagon-like peptide-1 (ligand) |  |  | EC50 of the decrease of the FRET signal in the HTRF cAMP assay, GLP-1R expressing HEK293 cells [3]: 0.54 nM
 |  |  |  | C=C[C@@]1(C)CC(=O)[C@]2(O)[C@@]3(C)[C@@H](O)CCC(C)(C)[C@@H]3[C@H](O)[C@H](OC(C)=O)[C@@]2(C)O1 [forskolin] |  |  | GFP-positive cells versus no treatment [4]: more GFP-positive cells
 |  |  |  | MCP1: chemokine MCP1 peptide displayed on the cell surface as fusion with LYNX1 signal and GPI-AP sequences |  |  | activation of CCR2 receptor (inhibition of forskolin-induced luciferase expression) ([5]; MCP1 fused to the signal sequence and GPI-AP (all constructions), 6 h after transfection): activated the receptor in all the constructions where the peptide was fused to the signal sequence and GPI-AP; also recorded: activated the CCR2 receptor in all the constructions where the peptide was fused to the signal and GPI-AP sequences; activation of CCR2 receptor (inhibition of forskolin-induced luciferase expression) ([5]; negative control: MCP1 not fused to the signal or GPI-AP sequences): did not activate the CCR2 receptor when the peptide was not fused to the signal sequence and GPI-AP; colocalization with CCR2 at the cell surface [6]: colocalization of MCP1 and CCR2 at the cell surface
46.7 | 42.9 | 10.4 | 30.1–46.1% | CC[C@H](C)[C@H](NC(=O)[C@H](C)NC(=O)[C@H](CC(=O)O)NC(=O)[C@H](Cc1ccccc1)NC(=O)[C@H](C)NC(=O)[C@@H]1CCCN1C(=O)[C@H](CCC(N)=O)NC(=O)[C@H](CS)NC(=O)[C@@H](NC(=O)[C@H](CCC(=O)O)NC(=O)[C@H](CCCNC(=N)N)NC(=O)[C@H](CC(C)C)NC(=O)CNC(=O)[C@H](CCC(=O)O)NC(=O)[C@@H](N)CS)C(C)C)C(=O)N[C@@H](CC(=O)O)C(=O)N[C@@H](CCSC)C(=O)N[C@@H](C)C(=O)N[C@@H](Cc1c[nH]c2ccccc12)C(=O)N1CCC[C@H]1C(=O)N[C@@H](Cc1ccc(O)cc1)C(=O)N[C@@H](Cc1ccccc1)C(=O)N[C@@H](CC(C)C)C(=O)N[C@@H](CC(=O)O)C(=O)N[C@@H](CS)C(=O)N[C@@H](Cc1c[nH]cn1)C(=O)N[C@@H](CCCNC(=N)N)C(=O)N[C@@H](Cc1ccc(O)cc1)C(=O)N[C@@H](Cc1ccccc1)C(=O)N[C@H](C(=O)N[C@@H](CCCNC(=N)N)C(=O)N[C@@H](CCC(=O)O)C(=O)O)[C@@H](C)O [PepA3] (H-CEGLREVCQPAFDAIDMAWPYFLDCHRYFTRE-OH; N-terminus and C-terminus assumed) | able to stimulate GLP-1R activation to a level comparable to that of GLP-1 | stimulated the GLP-1R-expressing HEK293 cells and increased the cAMP intracellular levels | 
 |  |  |  | SGLAGHSVFLVPGLAAHPGSHSDQPPGVPSRR [Pep2] |  | Only PepA3 stimulated the GLP-1R-expressing HEK293 cells | 
 |  |  |  | ELAELVPRLFRVASKTHRDLLEVNLQNGILFV [Pep1] |  | Only PepA3 stimulated the GLP-1R-expressing HEK293 cells | 
